From patent US11439622B2 (OXFORD UNIVERSITY INNOVATION LIMITED, priority 2015, dated 2022)

Legend:
Format in all cases: biochemical
IMP-1 (Imipenemase-1) = IMP-1 (Imipenemase-1) (Serratia marcescens, UniProt P52699); experiment: Enzyme inhibition assay, IMP-1; details: read-out: pIC50 IMP-1 (converted)
Experimental: (§1) The biological activity of the compounds of the present invention was tested using standard assay protocols.^7 The following representative enzymes NDM-1 (New Delhi metallo-β-lactamase-1), IMP-1 (Imipenemase-1) and VIM-2 (Veronese metallo-β-lactamase-2) were selected from different clinically relevant B1 metallo-β-lactamases.

[1] = molecular target: VIM-2 (Veronese metallo-β-lactamase-2) (Escherichia coli, UniProt Q5U7L7); experiment: Enzyme inhibition assay, VIM-2; details: read-out: pIC50 VIM-2 (converted)
Experimental: as §1

[2] = molecular target: NDM-1 (New Delhi metallo-β-lactamase-1) (Klebsiella pneumoniae, UniProt C7C422); experiment: Enzyme inhibition assay, NDM-1; details: for IC50: read-out: pIC50 NDM-1 (converted)
Experimental: as §1

Chain of IMP-1 (Imipenemase-1) (P52699 19-246, looked up, species assumed): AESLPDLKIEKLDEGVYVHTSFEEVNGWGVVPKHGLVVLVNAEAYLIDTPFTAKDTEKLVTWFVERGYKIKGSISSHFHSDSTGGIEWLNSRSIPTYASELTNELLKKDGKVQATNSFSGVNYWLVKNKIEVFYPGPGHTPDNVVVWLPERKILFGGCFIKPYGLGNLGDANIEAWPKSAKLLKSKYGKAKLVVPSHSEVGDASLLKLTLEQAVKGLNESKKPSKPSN
Chain of NDM-1 (New Delhi metallo-β-lactamase-1) (C7C422 29-270, looked up, species assumed): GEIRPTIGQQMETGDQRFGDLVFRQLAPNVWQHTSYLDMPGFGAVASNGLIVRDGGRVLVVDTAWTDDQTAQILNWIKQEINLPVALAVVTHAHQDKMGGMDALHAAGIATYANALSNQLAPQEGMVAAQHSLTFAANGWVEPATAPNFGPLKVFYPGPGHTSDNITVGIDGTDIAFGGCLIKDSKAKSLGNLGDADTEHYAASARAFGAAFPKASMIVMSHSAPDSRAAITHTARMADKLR

Row | SMILES | IC50 (IMP-1 (Imipenemase-1)) [nM] | IC50 [1] [nM] | IC50 [2] [nM] | pIC50 NDM-1 [2]
1 | Cc1cccc2c(-c3ccc(OC(F)(F)F)cc3)c(C(=O)O)[nH]c12 [Example 2, 7-methyl-3-(4-(trifluoromethoxy)phenyl)-1H-indole-2-carboxylic acid] | 7940 | 398 | 50.1 | 
2 | Cc1cccc2c(-c3cc(Cl)cc(Cl)c3)c(C(=O)O)[nH]c12 [Example 3, 3-(3,5-dichlorophenyl)-7-methyl-1H-indole-2-carboxylicacid] | 5010 | < 5.01 | 39.8 | 
3 | Cc1cccc2c(-c3ccncc3)c(C(=O)O)[nH]c12 [Example 4, 7-methyl-3-(pyridin-4-yl)-1H-indole-2-carboxylic acid] | 12600 | 631 | 63.1 | 
4 | Cc1cccc2c(-c3ccc(C(N)=O)cc3)c(C(=O)O)[nH]c12 [Example 5, 3-(4-carbamoylphenyl)-7-methyl-1H-indole-2-carboxylic acid] | 7940 | 100 | 31.6 | 
5 | Cc1cccc2c(-c3ccc(C#N)cc3)c(C(=O)O)[nH]c12 [Example 7, 3-(4-cyanophenyl)-7-methyl-1H-indole-2-carboxylic acid] | 7940 | 200 | 39.8 | 
6 | Cc1cccc2c(-c3ccc([N+](=O)[O-])cc3)c(C(=O)O)[nH]c12 [Example 8, 7-methyl-3-(4-nitrophenyl)-1H-indole-2-carboxylic acid] | 25100 | 251 | 79.4 | 
7 | COc1ccc(-c2c(C(=O)O)[nH]c3c(C)cccc23)cc1 [Example 9, 3-(4-methoxyphenyl)-7-methyl-1H-indole-2-carboxylic acid] | 7940 | 251 | 50.1 | 
8 | Cc1cccc2c(-c3ccc(Br)cc3)c(C(=O)O)[nH]c12 [Example 10, 3-(4-bromophenyl)-7-methyl-1H-indole-2-carboxylic acid] | 7940 | 200 | 25.1 | 
9 | Cc1cccc2c(-c3ccc(C(F)(F)F)cc3)c(C(=O)O)[nH]c12 [Example 11, 7-methyl-3-(4-(trifluoromethyl)phenyl)-1H-indole-2-carboxylic acid] | 12600 | 316 | 31.6 | 
10 | Cc1cccc2c(-c3ccc(N4CCOCC4)cc3)c(C(=O)O)[nH]c12 [Example 13, 7-methyl-3-(4-morpholinophenyl)-1H-indole-2-carboxylic acid] | 10000 | 1580 | 12.6 | 
11 | Cc1cccc2c(-c3cccc(S(N)(=O)=O)c3)c(C(=O)O)[nH]c12 [Example 14, 7-methyl-3-(3-sulfamoylphenyl)-1H-indole-2-carboxylic acid] |  | 794 | 50.1 | 
12 | Cc1cccc2c(C3=CCCC3)c(C(=O)O)[nH]c12 [Example 27, 3-(cyclopent-1-en-1-yl)-7-methyl-1H-indole-2-carboxylic acid] |  |  | 79.4 | 
13 | Cc1cccc2c(-c3ccc(Cl)cc3)c(C(=O)O)n(C)c12 [Example 35, 3-(4-chlorophenyl)-1,7-dimethyl-indole-2-carboxylic acid] |  |  | 501 | 
14 | Cc1cc(C)cc(-c2c(C(=O)O)[nH]c3c(C)cccc23)c1 [Example 38, 3-(3,5-dimethylphenyl)-7-methyl-1H-indole-2-carboxylic acid] |  | 158 | 39.8 | 
15 | Cc1cccc2c(-c3ccccc3Cl)c(C(=O)O)[nH]c12 [Example 39, 3-(2-chlorophenyl)-7-methyl-1H-indole-2-carboxylic acid] |  | 126 | 126 | 
16 | Cc1cccc2c(I)c(C(=O)O)[nH]c12 [Example 46, 3-iodo-7-methyl-1H-indole-2-carboxylic acid] |  |  | 631 | 
17 | O=C(O)c1[nH]c2c(C(F)(F)F)cccc2c1-c1ccc(F)cc1 [Example 51, 3-(4-fluorophenyl)-7-(trifluoromethyl)-1H-indole-2-carboxylic acid] | 2000 |  | 251 | 
18 | CNC(=O)c1ccc(-c2c(C(=O)O)[nH]c3c(C(C)C)cccc23)cc1 [Example 87, 7-isopropyl-3-(4-(methylcarbamoyl)phenyl)-1H-indole-2-carboxylic acid] | 77.6 |  | 12.6 | 
19 | Cc1ccc(-c2c(C(=O)O)[nH]c3c(C(C)C)cccc23)s1 [Example 89, 7-isopropyl-3-(5-methylthiophen-2-yl)-1H-indole-2-carboxylic acid] | 21.4 |  | 26.9 | 
20 | CC(=O)NCc1ccc(-c2c(C(=O)O)[nH]c3c(C(C)C)cccc23)cc1 [Example 90, 3-(4-(acetamidomethyl)phenyl)-7-isopropyl-1H-indole-2-carboxylic acid] | 61.7 |  | 12.6 | 
21 | CN(C)C(=O)c1ccc(-c2c(C(=O)O)[nH]c3c(C(C)(C)C)cccc23)cc1 [Example 92, 7-(tert-butyl)-3-(4-(dimethylcarbamoyl)phenyl)-1H-indole-2-carboxylic acid] | 79.4 |  | 53.7 | 

Row | SMILES | IC50 (IMP-1 (Imipenemase-1)) [nM] | IC50 [1] [nM] | IC50 [2] [nM] | pIC50 NDM-1 [2]
22 | CN(C)S(=O)(=O)c1ccc(-c2c(C(=O)O)[nH]c3c(C(C)(C)C)cccc23)cc1 [Example 93, 7-(tert-butyl)-3-(4-(N,N-dimethylsulfamoyl)phenyl)-1H-indole-2-carboxylic acid] | 85.1 |  | 79.4 | 
23 | CC(C)c1cccc2c(-c3ccc(S(=O)(=O)N4CCOCC4)cc3)c(C(=O)O)[nH]c12 [Example 95, 7-isopropyl-3-(4-(morpholinosulfonyl)phenyl)-1H-indole-2-carboxylicacid] | 24 |  | 2.69 | 
24 | CC(C)c1cccc2c(-c3ccc(CNS(C)(=O)=O)cc3)c(C(=O)O)[nH]c12 [Example 96, 7-isopropyl-3-(4-(methylsulfonamidomethyl)phenyl)-1H-indole-2-carboxylic acid] | 7.76 |  | 3.98 | 
25 | CC(C)c1cccc2c(-c3ccc(CN(C)C)cc3)c(C(=O)O)[nH]c12 [Example 97, 3-(4-((dimethylamino)methyl)phenyl)-7-isopropyl-1H-indole-2-carboxylicacid] | 437 |  | 10 | 
26 | CC(C)c1cccc2c(-c3ccc(N4CCOCC4)nc3)c(C(=O)O)[nH]c12 [Example 98, 7-isopropyl-3-(6-morpholinopyridin-3-yl)-1H-indole-2-carboxylic acid] | 219 |  | 6.76 | 
27 | CC(C)c1cccc2c(-c3ccc(S(=O)(=O)N4CCCC4)cc3)c(C(=O)O)[nH]c12 [Example 99, 7-isopropyl-3-(4-(pyrrolidin-1-ylsulfonyl)phenyl)-1H-indole-2-carboxylic acid] | 8.32 |  | 0.851 | 
28 | CC(C)c1cccc2c(-c3ccc(Cn4cnnn4)cc3)c(C(=O)O)[nH]c12 [Example 100, 3-(4-((1H-tetrazol-1-yl)methyl)phenyl)-7-isopropyl-1H-indole-2-carboxylic acid] | 22.4 |  | 15.8 | 
29 | CC(C)c1cccc2c(-c3ccc(C(=O)N(C)C)cc3Cl)c(C(=O)O)[nH]c12 [Example 101, 3-(2-chloro-4-(dimethylcarbamoyl)phenyl)-7-isopropyl-1H-indole-2-carboxylic acid] | 1550 |  | 15.8 | 
30 | O=C(O)c1[nH]c2ccccc2c1-c1ccccc1 [Example 109, 3-phenyl-1H-indole-2-carboxylic acid] |  |  | 3160 | 
31 | Cc1cccc2c(-c3ccc(F)cc3)c(C(=O)NNc3ccc(S(C)(=O)=O)cc3)[nH]c12 [Example 110, 3-(4-fluorophenyl)-7-methyl-N′-(4-(methylsulfonyl)phenyl)-1H-indole-2-carbohydrazide] |  |  | 2000 | 
32 | O=C(O)c1[nH]c2c(F)cccc2c1-c1ccc(F)cc1 [Example 112, 7-fluoro-3-(4-fluorophenyl)-1H-indole-2-carboxylic acid] |  | 7940 | 1580 | 
33 | CS(=O)(=O)c1ccc(NNC(=O)c2[nH]c3ccccc3c2-c2ccccc2)cc1 [Example 113, N′-(4-(methylsulfonyl)phenyl)-3-phenyl-1H-indole-2-carbohydrazide] |  |  | 7940 | 
34 | Cc1cccc2cc(C(=O)O)[nH]c12 [Example 114, 7-methyl-1H-indole-2-carboxylic acid] |  |  | 3160 | 
35 | Cc1cccc2c(Br)c(C(=O)O)[nH]c12 [Example 115, 3-bromo-7-methyl-1H-indole-2-carboxylic acid] |  |  | 1580 | 
36 | Cc1cccc2c(C3CCNCC3)c(C(=O)O)[nH]c12 [Example 118, 7-methyl-3-(piperidin-4-yl)-1H-indole-2-carboxylic acid] | > 100000 |  | 15800 | 
37 | Cc1ccc2[nH]c(C(=O)O)c(-c3ccc(F)cc3)c2c1 [Example 121, 3-(4-fluorophenyl)-5-methyl-1H-indole-2-carboxylic acid] |  | 39800 | 6310 | 
38 | CNC(=O)c1[nH]c2c(C(C)C)cccc2c1-c1ccc(S(=O)(=O)N(C)C)cc1 [Example 122, 3-(4-(N,N-dimethylsulfamoyl)phenyl)-7-isopropyl-N-methyl-1H-indole-2-carboxamide] | > 20000 | > 20000 |  | 
39 | CC(C)c1cccc2c(-c3ccc(S(=O)(=O)N(C)C)cc3)c(C(N)=O)[nH]c12 [Example 125, 3-(4-(N,N-dimethylsulfamoyl)phenyl)-7-isopropyl-1H-indole-2-carboxamide] |  |  |  | N.I.
40 | CC(C)c1cccc2c(-c3ccc(S(=O)(=O)N(C)C)cc3)c(C#N)[nH]c12 [Example 126, 4-(2-cyano-7-isopropyl-1H-indol-3-yl)-N,N-dimethylbenzenesulfonamide] |  |  |  | N.I.
41 | CC(C)c1cccc2c(-c3ccc(S(=O)(=O)N(C)C)cc3)c(C(=O)Nc3ncco3)[nH]c12 [Example 128, 3-(4-(N,N-dimethylsulfamoyl)phenyl)-7-isopropyl-N-(oxazol-2-yl)-1H-indole-2-carboxamide] |  |  | 214 | 
